Laboratory results taken from patent publication US20250084087A1, “BICYCLIC HETEROCYCLES AS MRGPRX2 ANTAGONISTS” (Incyte Corporation, priority 2023, published 2025).

Assays:
Type in all cases: cell-based
[1] = biological target: T1, MRGPRX2 (Homo sapiens, UniProt Q96LB1); assay: MRGPRX2 FLIPR calcium mobilization assay; set-up: host or cells: CHO-K1; conditions: CHO-K1 cells stably expressing human MRGPRX2; Ca2+ release; agonist Cortistatin-14 at EC80
T1 sequence (Q96LB1 1-330): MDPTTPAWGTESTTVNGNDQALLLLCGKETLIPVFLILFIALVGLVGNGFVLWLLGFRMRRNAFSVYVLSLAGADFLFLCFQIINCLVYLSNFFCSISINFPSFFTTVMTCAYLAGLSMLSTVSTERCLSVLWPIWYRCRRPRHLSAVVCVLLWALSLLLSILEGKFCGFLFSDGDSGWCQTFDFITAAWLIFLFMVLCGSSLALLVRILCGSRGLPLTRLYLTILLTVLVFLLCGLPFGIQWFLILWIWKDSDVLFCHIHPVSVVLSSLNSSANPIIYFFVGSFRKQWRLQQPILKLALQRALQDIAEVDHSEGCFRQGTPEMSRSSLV
Experimental: Example A. MRGPRX2 FLIPR Calcium Mobilization Assay
Chinese hamster ovary (CHO-K1) cells stably expressing human MRGPRX2 were purchased from Genescript (Piscataway, NJ). The cells were maintained in culture medium (Ham's F-12K) containing 10% (v/v) FBS, 200 μg/mL Zeocin, 100 units/mL penicillin G and 100 μg/mL streptomycin (Life Technologies, Carlsbad, CA). For the assay, the cells were harvested and resuspended with culture medium without Zeocin before plating at 8000 cells per well in 20 μL in 384-well black clear bottom cell culture plates (VWR, Radnor, PA). After 24 hour culture at 37° C. and 5% CO2, the cells were loaded with 20 μL/well of calcium dye (FLIPR Calcium 6 Assay Kit, Molecular Devices, San Jose, CA) diluted in loading buffer (1× Hank's Balanced Salt Solution (HBSS), 5 mM probenecid, 20 mM 4-(2-hydroxyethyl)-1-piperazineethanesulfonic acid (HEPES), pH 7.4, VWR, Radnor, PA) followed with 45 min. incubation at 37° C. and 40 min. at r.t. in the dark. Cells were then treated with the addition of 10 uL/well test compounds with a range of increasing concentrations diluted in the assay buffer (1×HBSS, 20 mM HEPES, pH 7.4, VWR, Radnor, PA) with FLIPR Penta (Molecular Devices. San Jose, CA) and incubated for 30 min. at r.t. Ca^2+ release was measured with FLIPR Penta with 10 seconds basal fluorescence measurement, then 12.5 μL of 5× agonist Cortistatin-14 (Tocris, Minneapolis, MN) at final concentration corresponding to the EC80 were added followed with continued fluorescence signal monitoring for an additional 110 seconds. The base line adjusted (median of first 10s base line) max value of the Relative Fluorescence Unit (RFU) was plotted against compound concentrations. Wells with no compound were served as the positive controls, and wells with high concentration of reference antagonist were used as negative controls. IC50 curves were globally fitted with 3- or 4-parameter Hill equation in a Genedata Screener (Genedata Basel, Switzerland).

[2] = biological target: T1, MRGPRX2; assay: MRGPRX2 IP1 HTRF assay; set-up: host or cells: CHO-K1; conditions: CHO-K1 cells stably expressing human MRGPRX2; IP1 accumulation; agonist Cortistatin 14 1 μM
In short: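 CHO-K1 cells stably expressing human MRGPRX2, preincubated with compound 1 h at 37 °C, then stimulated with 1 μM Cortistatin 14 for 1 h. IP1 measured by HTRF against standard curve, normalized to DMSO and reference antagonist controls; IC50 from 3- or 4-parameter Hill fit.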

[3] = biological target: T1, MRGPRX2; assay: MRGPRX2 β-Arrestin recruitment assay (PathHunter); set-up: host or cells: CHO-K1 (PathHunter); conditions: PathHunter CHO-K1 MRGPRX2 β-Arrestin cell line; agonist Cortistatin 14 0.25 μM
In short: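 CHO-K1 PathHunter cells co-expressing ProLink-tagged MRGPRX2 and enzyme-acceptor-tagged β-arrestin were preincubated with compound 1 h at 37° C., then stimulated with cortistatin-14 (0.25 μM final) for 90 min. Enzyme-complementation luminescence read after 1 h detection; data normalized to DMSO and reference antagonist, IC50 from 3- or 4-parameter Hill fit.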

Row | Compound | IC50 [1] [nM] | IC50 [2] [nM] | IC50 [3] [nM]
1 | NS(=O)(=O)N1CCC(CNc2nc(Cl)cc3nc(C(F)(F)F)cn23)(c2ccccc2)CC1 [Example 5, 4-(((7-Chloro-2-(trifluoromethyl)imidazo[1,2-c]pyrimidin-5-yl)amino)methyl)-4-phenylpiperidine-1-sulfonamide] | 0.1 to 100 | 0.1 to 100 | 
2 | NC(=O)N1CC(CNc2cccc3nc(C(F)(F)F)nn23)(n2cc(F)cn2)C1 [Example 12, 3-(4-Fluoro-1H-pyrazol-1-yl)-3-(((2-(trifluoromethyl)-[1,2,4]triazolo[1,5-a]pyridin-5-yl)amino)methyl)azetidine-1-carboxamide] | 0.1 to 100 | 100 to 1000 | 
3 | CNC(=O)N1CCC(CNc2cccc3nc(C(F)(F)F)nn23)(c2ccccc2)CC1 [Example 13, N-Methyl-4-phenyl-4-(((2-(trifluoromethyl)-[1,2,4]triazolo[1,5-a]pyridin-5-yl)amino)methyl)piperidine-1-carboxamide] | 0.1 to 100 | 0.1 to 100 | 
4 | CN1CCC(CNc2cc(C(F)(F)F)nc3cc(C(F)(F)F)nn23)(c2ccccc2)CC1 [Example 17, N-((1-Methyl-4-phenylpiperidin-4-yl)methyl)-2,5-bis(trifluoromethyl)pyrazolo[1,5-a]pyrimidin-7-amine] | 0.1 to 100 | 0.1 to 100 | 
5 | OCCN1CCC(CNc2cccc3nc(C(F)(F)F)cn23)(c2ccc(F)cn2)CC1 [Example 23, 2-(4-(5-Fluoropyridin-2-yl)-4-(((2-(trifluoromethyl)imidazo[1,2-a]pyridin-5-yl)amino)methyl)piperidin-1-yl)ethan-1-ol] | 100 to 1000 | 100 to 1000 | 
6 | O=C(CN1CCC1)N1CCC(CNc2cc(C(F)(F)F)nc3cc(Br)nn23)(c2ccc(F)cc2)CC1 [Example 60, 2-(Azetidin-1-yl)-1-(4-(((2-bromo-5-(trifluoromethyl)pyrazolo[1,5-a]pyrimidin-7-yl)amino)methyl)-4-(4-fluorophenyl)piperidin-1-yl)ethan-1-one] | 0.1 to 100 |  | 0.1 to 100
7 | N#CCCNC1CCC(CNc2cc(C(F)(F)F)nc3cc(Br)nn23)(c2ccccc2)CC1 (centres unmarked) [Example 81, 3-((4-(((2-Bromo-5-(trifluoromethyl)pyrazolo[1,5-a]pyrimidin-7-yl)amino)methyl)-4-phenylcyclohexyl)amino)propanenitrile] | 0.1 to 100 |  | 0.1 to 100
8 | FC(F)(F)c1cc(NCC2(c3ccccc3)CC=CC2)n2nc(Br)cc2n1 [Example 82, 2-Bromo-N-((1-phenylcyclopent-3-en-1-yl)methyl)-5-(trifluoromethyl)pyrazolo[1,5-a]pyrimidin-7-amine] | 0.1 to 100 |  | 0.1 to 100
9 | CNC1CCC(CNc2cc(C(F)(F)F)nc3cc(Br)nn23)(c2ccccc2)CC1 (centres unmarked) [Example 83, 2-Bromo-N-((4-(methylamino)-1-phenylcyclohexyl)methyl)-5-(trifluoromethyl)pyrazolo[1,5-a]pyrimidin-7-amine] | 0.1 to 100 |  | 0.1 to 100

The remaining lines, values ahead:

Row | IC50 [1] [nM] | IC50 [2] [nM] | IC50 [3] [nM] | Compound
10 | 0.1 to 100 | 100 to 1000 |  | Cc1cc(NCC2(c3ccccc3)CCN(C(N)=O)CC2)n2nc(C(F)(F)F)nc2n1 [Example 7, 4-(((5-Methyl-2-(trifluoromethyl)-[1,2,4]triazolo[1,5-a]pyrimidin-7-yl)amino)methyl)-4-phenylpiperidine-1-carboxamide]
11 | 0.1 to 100 | 0.1 to 100 |  | NC(=O)N1CC(CNc2cc(C(F)(F)F)nc3cc(C(F)(F)F)nn23)(n2cc(F)cn2)C1 [Example 10, 3-(((2,5-Bis(trifluoromethyl)pyrazolo[1,5-a]pyrimidin-7-yl)amino)methyl)-3-(4-fluoro-1H-pyrazol-1-yl)azetidine-1-carboxamide]
12 | 0.1 to 100 | 0.1 to 100 |  | NS(=O)(=O)N1CC(CNc2cccc3nc(C(F)(F)F)nn23)(n2cc(F)cn2)C1 [Example 11, 3-(4-Fluoro-1H-pyrazol-1-yl)-3-(((2-(trifluoromethyl)-[1,2,4]triazolo[1,5-a]pyridin-5-yl)amino)methyl)azetidine-1-sulfonamide]
13 | 0.1 to 100 | 100 to 1000 |  | COC(=O)N1CCC(CNc2cc(C(F)(F)F)nc3cc(C(F)(F)F)nn23)(c2ccccc2)CC1 [Example 14, Methyl 4-(((2,5-bis(trifluoromethyl)pyrazolo[1,5-a]pyrimidin-7-yl)amino)methyl)-4-phenylpiperidine-1-carboxylate]
14 | 0.1 to 100 | 0.1 to 100 |  | CNC(=O)N1CCC(CNc2cc(C(F)(F)F)nc3cc(C(F)(F)F)nn23)(c2ccccc2)CC1 [Example 15, 4-(((2,5-Bis(trifluoromethyl)pyrazolo[1,5-a]pyrimidin-7-yl)amino)methyl)-N-methyl-4-phenylpiperidine-1-carboxamide]
15 | 0.1 to 100 | 0.1 to 100 |  | NC(=O)N1CCC(CNc2cc(C(F)(F)F)nc3cc(C(F)(F)F)nn23)(c2ccccc2)CC1 [Example 16, 4-(((2,5-Bis(trifluoromethyl)pyrazolo[1,5-a]pyrimidin-7-yl)amino)methyl)-4-phenylpiperidine-1-carboxamide]
16 | 0.1 to 100 | 0.1 to 100 |  | O=C(N1CCC(CNc2cccc3nc(C(F)(F)F)cn23)(c2ccccc2)CC1)N1CC(F)(F)C1 [Example 19, (3,3-Difluoroazetidin-1-yl)(4-phenyl-4-(((2-(trifluoromethyl)imidazo[1,2-a]pyridin-5-yl)amino)methyl)piperidin-1-yl)methanone]
17 | 0.1 to 100 | 0.1 to 100 |  | NC(=O)N1CCC(CNc2cc(C(F)(F)F)nc3cc(Br)nn23)(c2ccc(F)cn2)CC1 [Example 22, 4-(((2-Bromo-5-(trifluoromethyl)pyrazolo[1,5-a]pyrimidin-7-yl)amino)methyl)-4-(5-fluoropyridin-2-yl)piperidine-1-carboxamide]
18 | 0.1 to 100 | 100 to 1000 |  | N#CCC(=O)N1CCC(CNc2cccc3nc(C(F)(F)F)cn23)(c2ccc(F)cn2)CC1 [Example 24, 3-(4-(5-Fluoropyridin-2-yl)-4-(((2-(trifluoromethyl)imidazo[1,2-a]pyridin-5-yl)amino)methyl)piperidin-1-yl)-3-oxopropanenitrile]
19 | 0.1 to 100 | 0.1 to 100 |  | CNC(=O)N1CCC(CNc2cccc3nc(C(F)(F)C(F)(F)F)cn23)(c2ccccc2)CC1 [Example 26, N-Methyl-4-(((2-(perfluoroethyl)imidazo[1,2-a]pyridin-5-yl)amino)methyl)-4-phenylpiperidine-1-carboxamide]
20 | 0.1 to 100 |  | 0.1 to 100 | CN1CC[C@@H]1C(=O)N1CCC(CNc2cc(C(F)(F)F)nc3cc(C(F)(F)F)nn23)(c2ccc(F)cc2)CC1 [Example 50, (R)-(4-(((2,5-Bis(trifluoromethyl)pyrazolo[1,5-a]pyrimidin-7-yl)amino)methyl)-4-(4-fluorophenyl)piperidin-1-yl)(1-methylazetidin-2-yl)methanone]
21 | 0.1 to 100 |  | 0.1 to 100 | O=C(NC1CC1)N1CC(CNc2cc(C(F)(F)F)nc3cc(C(F)F)nn23)(c2ccc(F)cc2)C1 [Example 63, N-Cyclopropyl-3-(((2-(difluoromethyl)-5-(trifluoromethyl)pyrazolo[1,5-a]pyrimidin-7-yl)amino)methyl)-3-(4-fluorophenyl)azetidine-1-carboxamide]
22 | 0.1 to 100 |  | 0.1 to 100 | CC(=O)N(C)C1CCC(CNc2cc(C(F)(F)F)nc3cc(Br)nn23)(c2ccccc2)CC1 (centres unmarked) [Example 85, N-(4-(((2-Bromo-5-(trifluoromethyl)pyrazolo[1,5-a]pyrimidin-7-yl)amino)methyl)-4-phenylcyclohexyl)-N-methylacetamide]
